Experiments:
rhesus H3 receptor [1] = target: T1, rhesus H3 receptor (Macaca mulatta, UniProt Q865E1); test: GTPγS radioligand binding assay, inhibition of rhesus H3 constitutive functional activity (inverse agonism); format: biochemical, rhesus monkey (Macacca Mulatta); parameters: concentration or dose not given beside the values; conditions: rhesus H3 cell membranes, relative to basal levels
Procedure, shortened: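 Membranes from tetracycline-induced (500 ng/ml, 24 h) Flp-In T-REx 293 cells stably expressing the 445-aa rhesus H3 receptor, resuspended in 5 mM HEPES pH 7.4 at 10 mg/ml protein. Inverse agonism measured as inhibition of constitutive GTPγS binding.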

rhesus H3 receptor [2] = target: T1, rhesus H3 receptor; test: Rhesus H3 [3H]-methylhistamine radioligand binding assay; parameters: species or system rhesus monkey (Macacca Mulatta); conditions: [3H]-Methylhistamine 2 nM, rhesus H3 membranes, WGA SPA beads, Cheng-Prusoff
Procedure, shortened: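 Membranes from tetracycline-induced (500 ng/ml, 24 h) Flp-In T-REx 293 cells expressing 445-aa rhesus H3 receptor, 20-30 μg protein per reaction. WGA SPA format with 2 nM [3H]-methylhistamine, 1 hour at 25° C; Ki obtained via Hill transformation and Cheng-Prusoff equation.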

T1 sequence (Q865E1 1-445): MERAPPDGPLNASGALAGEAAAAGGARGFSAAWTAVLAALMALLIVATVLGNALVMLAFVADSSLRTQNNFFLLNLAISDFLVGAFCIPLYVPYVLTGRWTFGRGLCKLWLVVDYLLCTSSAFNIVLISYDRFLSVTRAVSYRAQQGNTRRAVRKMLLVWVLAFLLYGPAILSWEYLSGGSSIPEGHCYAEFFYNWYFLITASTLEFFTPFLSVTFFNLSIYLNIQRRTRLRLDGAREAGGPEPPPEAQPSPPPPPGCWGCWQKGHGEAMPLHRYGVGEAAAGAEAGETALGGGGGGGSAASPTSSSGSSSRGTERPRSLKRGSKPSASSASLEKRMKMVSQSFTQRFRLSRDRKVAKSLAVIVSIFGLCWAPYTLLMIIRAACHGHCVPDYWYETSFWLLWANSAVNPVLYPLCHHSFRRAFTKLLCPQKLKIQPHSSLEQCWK

For `C[C@H]1CCCN1[C@H]1CCN(c2ccc(N3CCC4(CCN(CC5CCOCC5)CC4)C3=O)c(C(F)(F)F)c2)C1` [Example 68, 2-[4-((2S,3′S)-2-Methyl-[1,3′]bipyrrolidinyl-1′-yl)-2-trifluoromethyl-phenyl]-8-(tetrahydro-pyran-4-ylmethyl)-2,8-diaza-spiro[4.5]decan-1-one], the “Inverse Agonism: % inhibition of Basal GTPγS binding in Rhesus H3” value (rhesus H3 receptor [1]) was −19% and the Ki (rhesus H3 receptor [2]) was 4.2 nM.

Source: patent US8604046B2, “Substituted piperidine spiro pyrrolidinone and piperidinone, preparation and therapeutic use thereof” (Sanofi, priority 2008, dated 2013)
